Substitutions are numbered along the chain they refer to. Ends that are not written are not given here. Where only a bound is given, the exact number is not on record here.

Common to all, as to assay: PDK1 activity assay with T308tide
Holding throughout (assay type): biochemical

Assay [1] deals with T1, GST-PDK1 [Leu155Val] (Homo sapiens, UniProt O15530, L155V).
T1 construct: different protein constructs, comprising the full length protein or the catalytic domain alone; made in house; host or cells: HEK293 cells (pEBG-2T-PDK1 mutant)

Assay [2] addresses T2, GST-PDK1 [Gln150Met] (Homo sapiens, UniProt O15530, Q150M).
T2 construct: different protein constructs, comprising the full length protein or the catalytic domain alone; made in house; host or cells: HEK293 cells (pEBG-2T-PDK1 mutant)
T2 sequence (O15530 1-556 Q150M): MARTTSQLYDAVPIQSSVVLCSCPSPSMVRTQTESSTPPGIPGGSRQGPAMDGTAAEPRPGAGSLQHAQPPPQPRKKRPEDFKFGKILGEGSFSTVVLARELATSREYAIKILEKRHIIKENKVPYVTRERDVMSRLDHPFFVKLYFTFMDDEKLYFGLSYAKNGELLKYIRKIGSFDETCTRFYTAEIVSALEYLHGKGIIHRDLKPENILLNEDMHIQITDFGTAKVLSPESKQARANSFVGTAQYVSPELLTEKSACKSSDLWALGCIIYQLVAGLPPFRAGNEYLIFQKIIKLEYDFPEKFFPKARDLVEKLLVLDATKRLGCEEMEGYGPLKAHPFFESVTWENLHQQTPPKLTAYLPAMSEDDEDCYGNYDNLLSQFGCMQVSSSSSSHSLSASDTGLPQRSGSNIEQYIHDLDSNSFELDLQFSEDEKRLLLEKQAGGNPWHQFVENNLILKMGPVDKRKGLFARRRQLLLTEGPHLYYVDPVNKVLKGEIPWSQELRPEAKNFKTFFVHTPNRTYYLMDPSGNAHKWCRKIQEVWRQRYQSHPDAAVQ

The target in assay [3] is T3, GST-PDK1 [Arg131Lys] (Homo sapiens, UniProt O15530, R131K).
T3 construct: different protein constructs, comprising the full length protein or the catalytic domain alone; made in house; host or cells: HEK293 cells (pEBG-2T-PDK1 mutant)
T3 sequence (O15530 1-556 R131K): T2 sequence (O15530 1-556 Q150M) with R131K, M150Q

Assay [4] deals with T4, GST-PDK1 [Leu155Ala] (Homo sapiens, UniProt O15530, L155A).
T4 construct: different protein constructs, comprising the full length protein or the catalytic domain alone; made in house; host or cells: HEK293 cells (pEBG-2T-PDK1 mutant)
T4 sequence (O15530 1-556 L155A): T2 sequence (O15530 1-556 Q150M) with M150Q, L155A

T1 sequence (O15530 whole entry L155V, the tested form may be a part): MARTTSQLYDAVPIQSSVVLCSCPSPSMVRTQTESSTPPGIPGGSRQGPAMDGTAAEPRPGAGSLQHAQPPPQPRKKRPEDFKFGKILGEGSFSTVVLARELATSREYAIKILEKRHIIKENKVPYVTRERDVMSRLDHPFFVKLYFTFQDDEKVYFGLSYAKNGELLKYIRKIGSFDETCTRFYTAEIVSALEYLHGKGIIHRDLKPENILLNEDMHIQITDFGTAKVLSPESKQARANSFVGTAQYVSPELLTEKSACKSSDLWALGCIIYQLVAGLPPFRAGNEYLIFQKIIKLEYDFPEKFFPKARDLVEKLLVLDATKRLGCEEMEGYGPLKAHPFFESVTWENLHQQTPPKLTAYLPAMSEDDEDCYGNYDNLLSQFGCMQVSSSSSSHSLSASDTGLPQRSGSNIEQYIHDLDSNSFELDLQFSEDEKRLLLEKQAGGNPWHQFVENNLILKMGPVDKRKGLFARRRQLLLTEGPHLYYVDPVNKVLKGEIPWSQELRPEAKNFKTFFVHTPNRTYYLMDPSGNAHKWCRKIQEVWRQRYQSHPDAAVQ

What is called AC50 is the concentration giving half of the maximal activity seen. For “REPRILSEEEQEMFRDFDYIADWC [PIFtide, reference compound]”, the AC50 result in assay [1] was “No Effect”; in assay [2], 0.86 ± 0.25 µM; in assay [3], 0.13 ± 0.02 µM; in assay [4] it was 3.7 ± 0.66 µM. Further, the Max. activity is 2.11 ± 0.15 U/mg in assay [2], 0.77 ± 0.02 U/mg in assay [3] and 3.46 ± 0.15 U/mg in assay [4].

Take `O=C(O)CSC(CC(=O)c1ccc(Cl)cc1)c1ccccc1` (centres unmarked) [Compound 1]: the AC50 entry in assay [1] is “No Effect”; in assay [2], 177 ± 64 µM; in assay [3], 51 ± 15 µM; in assay [4], more than 200 µM. In addition, the Max. activity is 2.28 ± 0.26 U/mg in assay [2], 1.13 ± 0.09 U/mg in assay [3] and 2.02 ± 0.61 U/mg in assay [4].

The record behind these values is patent US20110152166A1, “METHOD OF MODULATION OF PROTEIN PHOSPHORYLATION-DEPENDENT CONFORMATIONAL TRANSITIONS WITH LOW MOLECULAR WEIGHT COMPOUNDS” (priority 2006, published 2011).
